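Where inhibition never reached the appropriate level, the endpoint shown equals the highest concentration tested. Otherwise, values were interpolated linearly from a five-concentration, 48-hour dose response in 96-well plates. TGI denotes the concentration required for complete inhibition of growth.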
Legend:
Test in all cases: inhibition of tumour cell growth, NCI panel, 48 h
[1] = tested on: SK-MEL-2 melanoma
[2] = tested on: T-47D breast
[3] = tested on: SF-268 CNS
[4] = tested on: 786-0 renal
[5] = tested on: UACC-257 melanoma
[6] = tested on: PC-3 prostate
[7] = tested on: ACHN renal
[8] = tested on: OVCAR-5 ovarian
[9] = tested on: RXF 393 renal
[10] = tested on: COLO 205 colon
[11] = tested on: NCI-H522 lung
[12] = tested on: KM12 colon
[13] = tested on: IGROV1 ovarian
[14] = tested on: BT-549 breast
[15] = tested on: EKVX NSCLC
[16] = tested on: HOP-92 NSCLC
[17] = tested on: UO-31 renal
[18] = tested on: M14 melanoma
[19] = tested on: NCI-H226 lung
[20] = tested on: OVCAR-8 ovarian
[21] = tested on: CAKI-1 renal
[22] = tested on: OVCAR-4 ovarian
[23] = tested on: MDA-MB-435
[24] = tested on: MDA-MB-231 breast
[25] = tested on: UACC-62 melanoma
[26] = tested on: SNB-19 CNS
[27] = tested on: SK-MEL-28 melanoma
[28] = tested on: HCT-15 colon
[29] = tested on: RPMI-8226 leukemia
[30] = tested on: SNB-75 CNS
[31] = tested on: MALME-3M melanoma
[32] = tested on: CCRF-CEM leukemia
[33] = tested on: SW-620 colon
[34] = tested on: U251 CNS
[35] = tested on: SK-OV-3 ovarian
[36] = tested on: MOLT-4 leukemia
[37] = tested on: HT29 colon
[38] = tested on: DU-145 prostate
[39] = tested on: HL-60(TB) leukemia
[40] = tested on: SR leukemia
[41] = tested on: NCI-H460 lung
[42] = tested on: MDA-N
[43] = tested on: NCI-H23 lung
[44] = tested on: LOX IMVI melanoma
[45] = tested on: OVCAR-3 ovarian
[46] = tested on: MCF7 breast
[47] = tested on: TK-10 renal
[48] = tested on: HOP-62 NSCLC
[49] = tested on: NCI/ADR-RES ovarian
[50] = tested on: SK-MEL-5 melanoma
[51] = tested on: A549 NSCLC
[52] = tested on: SF-539 CNS
[53] = tested on: HCT-116 colon
[54] = tested on: HCC-2998 colon
[55] = tested on: SN12C renal
[56] = tested on: SF-295 CNS
[57] = tested on: HS 578T breast
[58] = tested on: K-562 leukemia

## Cc1cc(=O)n2nc(CCl)sc2n1
[1]
  TGI: 28.7 µM
[2]
  TGI: 32.3 µM
[3]
  TGI: 39.5 µM
[4]
  TGI: 37 µM
[5]
  TGI: 25.2 µM
[6]
  TGI: 29.8 µM
[7]
  TGI: 27.5 µM
[8]
  TGI: 28.9 µM
[9]
  TGI: 20.8 µM
[10]
  TGI: 33.5 µM
[11]
  TGI: 20 µM
[12]
  TGI: 27.4 µM
[13]
  TGI: 37 µM
[14]
  TGI: 17.5 µM
[15]
  TGI: 36 µM
[16]
  TGI: 28.2 µM
[17]
  TGI: 28.8 µM
[18]
  TGI: 23.4 µM
[19]
  TGI: 34.9 µM
[20]
  TGI: 35.5 µM
[21]
  TGI: 23.1 µM
[22]
  TGI: 32.4 µM
[23]
  TGI: 26.3 µM
[24]
  TGI: 37.5 µM
[25]
  TGI: 46.9 µM
[26]
  TGI: 39 µM
[27]
  TGI: 28.6 µM
[28]
  TGI: 27.1 µM
[29]
  TGI: 50.6 µM
[30]
  TGI: 28.6 µM
[31]
  TGI: 26.4 µM
[32]
  TGI: 40.8 µM
[33]
  TGI: 37.5 µM
[34]
  TGI: 20.3 µM
[35]
  TGI: 53.2 µM
[36]
  TGI: 36.3 µM
[37]
  TGI: 30.5 µM
[38]
  TGI: 40.6 µM
[39]
  TGI: 38.2 µM
[40]
  TGI: 87 µM
[41]
  TGI: 29.5 µM
[42]
  TGI: 27.7 µM
[43]
  TGI: 47.1 µM
[44]
  TGI: 17.1 µM
[45]
  TGI: 28.4 µM
[46]
  TGI: 28.7 µM
[47]
  TGI: 23 µM
[48]
  TGI: 40.2 µM
[49]
  TGI: 48 µM
[50]
  TGI: 23 µM
[51]
  TGI: 35 µM
[52]
  TGI: 34.1 µM
[53]
  TGI: 24.9 µM
[54]
  TGI: 31.1 µM
[55]
  TGI: 35 µM
[56]
  TGI: 42.9 µM
[57]
  TGI: 55.9 µM
[58]
  TGI: 37.7 µM

Source: PubChem BioAssay (NCI)
